For five compounds, MIC results are on record in DBAASP.

Structures are written as SMILES. ≈ marks a conversion by molar mass, not a printed value.

Some test systems named below: Escherichia coli; Acinetobacter sp.; Pseudomonas aeruginosa; Bibersteinia trehalosi; Pasteurella multocida; Staphylococcus aureus; Aspergillus fumigatus; Klebsiella pneumoniae; Bacillus megaterium Bm11; Escherichia coli ML-35; Escherichia coli D21.
Experiment in all cases: ≥ marks a high value that may be exact or a test limit, other limits are often not marked, values filed in µg/mL are converted to µM
Assay [1] deals with Salmonella typhimurium CMCC 50013.
For assay [2], the system named is Streptococcus pyogenes ATCC 12344.
Assay [3] relates to Aspergillus flavus ATCC 9643.
Assay [4] relates to Candida albicans ATCC 10231.
The subject of assay [5] is Saccharomyces cerevisiae ATCC 9763.
For assay [6], the system named is Trichophyton rubrum ATCC 28188.
The test system of assay [7] is Cryptococcus neoformans ATCC 32045.
Assay [8] relates to Listeria monocytogenes CMCC 54002.
The subject of assay [9] is Aspergillus niger ATCC 6275.
Assay [10] deals with Shigella dysenteriae CMCC 51302.
The subject of assay [11] is Escherichia coli ATCC 11775.
In assay [12] the test system is Bacillus subtilis ATCC 6633.
Assay [13] has as its system Pseudomonas aeruginosa ATCC 25668.
The subject of assay [14] is Mannheimia haemolytica Serovar 1.
Assay [15] concerns Acinetobacter baumannii ATCC 19606.
The subject of assay [16] is Staphylococcus aureus ATCC 29213.
Assay [17] has as its system Streptococcus mutans Ingbritt.
In assay [18] the test system is Staphylococcus aureus ATCC 43300.
The subject of assay [19] is Salmonella enterica subsp. arizonae.
Assay [20] deals with Klebsiella pneumoniae ATCC 13883.
Assay [21] has as its system Enterococcus faecalis ATCC 29212.
Assay [22] deals with Fusobacterium nucleatum ATCC 25586.
In assay [23] the test system is Corynebacterium pseudotuberculosis ATCC 19410.
Assay [24] relates to Escherichia coli ATCC 25922.
For assay [25], the system named is Klebsiella aerogenes ATCC 13048.
Assay [26] has as its system Mannheimia haemolytica Serovar 2.
Assay [27] relates to Mannheimia haemolytica Serovar 6.
The test system of assay [28] is Burkholderia thailandensis.
Assay [29] relates to Bacillus anthracis Sterne 34F2.
The test system of assay [30] is Bacillus subtilis ATCC 9372.
The test system of assay [31] is Staphylococcus epidermidis ATCC 12228.
Assay [32] has as its system Serratia marcescens ATCC 8100.
Assay [33] has as its system Salmonella enterica subsp. enterica serovar Typhimurium ATCC 14028.

As a reminder, the MIC is the smallest concentration in the dilution series that meets the test's criterion for growth inhibition. Low values mean a more susceptible organism, high ones a less susceptible organism. For the compound `CC(C)C[C@H](NC(=O)CN)C(=O)N[C@@H](C)C(=O)N[C@@H](CCCN=C(N)N)C(=O)N[C@@H](C)C(=O)N[C@@H](CC(C)C)C(=O)N[C@H](C(=O)N[C@@H](CCCN=C(N)N)C(=O)N[C@@H](CC(C)C)C(=O)N[C@@H](CC(C)C)C(=O)N[C@@H](CCCN=C(N)N)C(=O)N[C@@H](CCC(N)=O)C(=O)N[C@@H](CC(C)C)C(=O)N[C@H](C(=O)N[C@@H](CCCN=C(N)N)C(=O)N[C@@H](CCC(N)=O)C(=O)N[C@@H](CC(C)C)C(=O)N[C@H](C(=O)N[C@@H](CCCN=C(N)N)C(=O)N[C@@H](C)C(=O)O)[C@@H](C)O)[C@@H](C)O)[C@@H](C)O` [GLARALTRLLRQLTRQLTRA], the MIC in assay [1] is 2 µM (≈ 4.62 µg/mL); in assay [2], 4 µM (≈ 9.23 µg/mL); in [3], 8 µM (≈ 18.5 µg/mL); in assay [4], 8 µM (≈ 18.5 µg/mL); in assay [5], 16 µM (≈ 36.9 µg/mL); in assay [6], ≥ 32 µM. Also, the MIC in assay [7] is 16 µM (≈ 36.9 µg/mL); in assay [8], 4 µM (≈ 9.23 µg/mL); in assay [9], ≥ 32 µM; in [10], 4 µM (≈ 9.23 µg/mL).
Regarding `CC[C@H](C)[C@H](NC(C)=O)C(=O)N[C@@H](CCCCN)C(=O)N[C@@H](Cc1c[nH]c2ccccc12)C(=O)N[C@@H](C)C(=O)NCC(=O)N[C@@H](CCCCN)C(=O)N[C@@H](Cc1c[nH]c2ccccc12)C(=O)N[C@@H](Cc1c[nH]c2ccccc12)C(=O)N[C@@H](CCCCN)C(=O)N[C@@H](CC(C)C)C(=O)N[C@@H](Cc1ccccc1)C(=O)N[C@@H](CCCCN)C(N)=O` [IKWAGKWWKLFK], the MIC in the assay on Escherichia coli came out at 1.26 µM (≈ 2.05 µg/mL); in assay [11], 0.629 µM (≈ 1.03 µg/mL); against Acinetobacter sp., 2.51 µM (≈ 4.1 µg/mL); in assay [12], 2.51 µM (≈ 4.1 µg/mL); in assay [13], 0.629 µM (≈ 1.03 µg/mL).
In the case of `CC[C@H](C)[C@H](NC(=O)[C@H](CCCN=C(N)N)NC(=O)[C@H](CCCN=C(N)N)NC(=O)[C@H](CC(C)C)NC(=O)[C@H](CC(N)=O)NC(=O)[C@@H](N)CCCCN)C(=O)N[C@H](C(=O)N[C@@H](CCCN=C(N)N)C(=O)N[C@@H](CCCCN)C(=O)N[C@H](C(=O)N[C@H](C(=O)N[C@@H](Cc1cnc[nH]1)C(=O)N[C@H](C(=O)N[C@H](C(=O)N[C@@H](CCCCN)C(=O)N[C@@H](CCCCN)C(=O)N[C@@H](Cc1ccc(O)cc1)C(=O)NCC(=O)O)[C@@H](C)CC)[C@@H](C)CC)[C@@H](C)CC)[C@@H](C)CC)[C@@H](C)CC` [KNLRRIIRKIIHIIKKYG], the MIC in assay [14] amounted to 0.663 µM (≈ 1.5 µg/mL); in assay [15], 2.6 µM (≈ 5.88 µg/mL); against Pseudomonas aeruginosa, 0.625 µM (≈ 1.41 µg/mL); in [16], 138 µM (≈ 313 µg/mL); in assay [17], 16.5 µM (≈ 37.3 µg/mL); against Bibersteinia trehalosi, 1.02 µM (≈ 2.3 µg/mL). The MIC is > 250 µM in assay [18]; 2.96 µM (≈ 6.7 µg/mL) in assay [19]; 0.265 µM (≈ 0.6 µg/mL) against Pasteurella multocida; 7.7 µM (≈ 17.4 µg/mL) in assay [20]; 78.8 µM (≈ 178 µg/mL) in assay [21]; 4.2 µM (≈ 9.5 µg/mL) in assay [22]. Moreover, the MIC in [23] is 8.84 µM (≈ 20 µg/mL); in assay [24], 9.6 µM (≈ 21.7 µg/mL); in assay [25], ≥ 45.9 µM; in assay [26] it was 0.265 µM (≈ 0.6 µg/mL); with Staphylococcus aureus it was 6.63 µM (≈ 15 µg/mL); with Aspergillus fumigatus, 4.42 µM (≈ 10 µg/mL). The figures for the MIC (with Klebsiella pneumoniae; in assay [27]) were 0.353 µM (≈ 0.8 µg/mL) and 0.0884 µM (≈ 0.2 µg/mL), respectively.
With `CSCC[C@H](NC(=O)[C@@H](NC(=O)[C@H](CC(N)=O)NC(C)=O)C(C)C)C(=O)N[C@H](C(=O)N[C@@H](Cc1ccc(O)cc1)C(=O)N[C@@H](Cc1c[nH]c2ccccc12)C(=O)N[C@@H](Cc1c[nH]c2ccccc12)C(=O)N[C@@H](CC(C)C)C(=O)N[C@@H](CC(=O)O)C(=O)N1CCC[C@H]1C(=O)N1CCC[C@H]1C(=O)N[C@@H](CC(C)C)C(N)=O)[C@@H](C)O` [NVMTYWWLDPPL], the MIC in assay [28] was ≥ 50 µM; in assay [29], ≥ 100 µM; in assay [30], ≥ 100 µM.
As to `CC(C)C[C@H](NC(=O)[C@H](Cc1ccc(O)cc1)NC(=O)[C@@H]1CCCN1C(=O)[C@@H]1CCCN1C(=O)[C@H](CCCN=C(N)N)NC(=O)[C@@H]1CCCN1C(=O)[C@H](CCCN=C(N)N)NC(=O)[C@H](CCCN=C(N)N)NC(=O)[C@@H](N)CCCN=C(N)N)C(=O)N1CCC[C@H]1C(=O)N[C@@H](CCCN=C(N)N)C(=O)N1CCC[C@H]1C(=O)N[C@@H](CCCN=C(N)N)C(=O)N1CCC[C@H]1C(=O)N1CCC[C@H]1C(=O)O` [RRRPRPPYLPRPRPP], the MIC was 8 µM (≈ 15.3 µg/mL) with Bacillus megaterium Bm11; > 64 µM in [31]; 4 µM (≈ 7.65 µg/mL) in assay [32]; 1 µM (≈ 1.91 µg/mL) against Escherichia coli ML-35; 0.125 µM (≈ 0.239 µg/mL) in assay [33]; 0.5 µM (≈ 0.956 µg/mL) with Escherichia coli D21.
